Positions count from the first letter of the chain named.
Key:
[1] = Systemic exposure following oral administration in the rat; conditions: for AUC0-t: 72 hours sampling; for AUC0-t / Cmax / Dose Normalised AUC0-t / Tmax: mean±SD (n=3); for *Estimated Bioavailability: dose normalised AUC0-t against an IV dose of 0.5 mg/kg
Experimental: Systemic exposure of various forms of N-((1r,3r)-3-(4-cyano-3-methoxyphenoxy)-2,2,4,4-tetramethylcyclobutyl)-4-(4-((4-(4-(2,4-dioxotetrahydropyrimidin-1(2H)-yl)-1H-pyrazolo[4,3-c]pyridin-1-yl)piperidin-1-yl)methyl)piperidin-1-yl)-3-fluorobenzamide were assessed following oral administration of 30 mg/kg of a suspension formulation (1% methylcellulose (aq)) or following oral administration of 35 mg/kg of a suspension formulation (100% PEG400) in the male Wistar Han rat. […] The sampling period was 72 hours, and the data is reported in the attached table as mean±SD (n=3).

[2] = target: T1, Androgen Receptor, MDA-PCa-2b (AR T878A/L702H) (Homo sapiens, UniProt P10275, L702H/T878A); assay: Androgen Receptor Degradation-Imaging Assay, MDA-PCa-2b cell line; format: cell-based; conditions: 16 hours treatment, maximum observed degradation
T1 construct: host or cells: MDA-PCa-2b
T1 sequence (P10275 1-920 L702H/T878A): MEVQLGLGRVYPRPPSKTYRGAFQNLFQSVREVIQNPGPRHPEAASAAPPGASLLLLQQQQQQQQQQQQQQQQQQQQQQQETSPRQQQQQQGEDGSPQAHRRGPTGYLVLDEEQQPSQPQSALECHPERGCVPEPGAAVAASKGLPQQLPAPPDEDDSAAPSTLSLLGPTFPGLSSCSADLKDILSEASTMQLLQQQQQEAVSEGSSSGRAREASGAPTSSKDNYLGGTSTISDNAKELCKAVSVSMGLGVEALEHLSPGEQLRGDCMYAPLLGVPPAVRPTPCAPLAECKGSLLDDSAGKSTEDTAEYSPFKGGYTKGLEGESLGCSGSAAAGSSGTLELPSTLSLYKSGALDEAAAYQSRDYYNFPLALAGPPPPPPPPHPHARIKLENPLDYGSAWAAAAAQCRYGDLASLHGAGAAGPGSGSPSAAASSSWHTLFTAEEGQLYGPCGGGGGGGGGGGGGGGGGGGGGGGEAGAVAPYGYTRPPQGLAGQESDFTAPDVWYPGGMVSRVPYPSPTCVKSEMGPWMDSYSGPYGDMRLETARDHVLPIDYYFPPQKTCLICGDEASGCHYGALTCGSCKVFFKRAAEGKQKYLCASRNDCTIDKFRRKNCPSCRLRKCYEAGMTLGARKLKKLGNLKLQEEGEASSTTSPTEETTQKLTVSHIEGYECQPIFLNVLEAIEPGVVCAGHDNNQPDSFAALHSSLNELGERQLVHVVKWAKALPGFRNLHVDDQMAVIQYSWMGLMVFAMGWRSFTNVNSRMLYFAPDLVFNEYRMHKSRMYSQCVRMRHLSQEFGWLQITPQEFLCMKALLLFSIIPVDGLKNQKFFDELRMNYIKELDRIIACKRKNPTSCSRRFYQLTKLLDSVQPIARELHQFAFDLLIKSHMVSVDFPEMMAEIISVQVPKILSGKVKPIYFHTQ
Experimental: (§1) Degradation of Androgen Receptor (AR) protein in human prostate cancer cell lines (MDA-PCa-2b (AR T878A/L702H), LNCaP (AR T878A), VCaP (AR wild type and amplified) 22RV1 (AR H875Y) and PC3 (AR negative control)) treated with AR PROTACs was quantified using immunofluorescence. Prostate cancer cells were plated (MDA-PCa-2b, and VCaP 16,000 cells/well; LNCaP and 22RV1 32,000 cells/well, and PC3 8,000 cells/well) in an optical bottom 96-well cell culture plate and allowed to attach overnight. The prostate cancer cell lines were treated for 16 hours with a 10-point 3-fold dilution series (dose range=0.02 nM to 333 nM). PC3 is included as an AR negative control and not treated with compound. Cells are fixed and permeabilized with 4% formaldehyde, blocked with 10% goat serum in immunofluorescence (IF) buffer (130 mM NaCl, 7 mM Na2HPO4, 3.5 mM NaH2PO4, 7.7 mM NaN3, 0.1% BSA, 0.2% Triton X, 0.05% Tween 20) prior to overnight incubation with rabbit antibody specific for C terminus of AR (commercially available from RevMaB Biosciences). Following washes with IF buffer, cells were incubated with fluorescent secondary antibody (Goat anti-rabbit Alexa 647; commercially available from Invitrogen) and Hoechst nuclear stain (commercially available from Themo Scientific) prior to quantification of nuclear AR levels via Opera Phenix high-content fluorescent imager using a 40× water objective. Image analysis was performed with Harmony software.
(§2) The averaged nuclear Alexa 647 median fluorescence intensity (MFI) of PC3 cells is subtracted from the nuclear Alexa 647 MFI of PROTAC treated and DMSO control treated cells. % AR remaining is calculated for PROTAC treatments as a percent of the DMSO control (MFI PROTAC treated/MFI DMSO control treated)*100). DC50 and the Dmax values, were obtained from these normalised values fitted with a 4-parameter sigmoidal response curve (Xlfit software). The DC50 is the interpolated concentration of PROTAC corresponding to 50% of the protein being degraded, and the Dmax parameter is the maximum experimentally observed degradation.

[3] = target: T2, Androgen Receptor, VCaP (AR wild type and amplified) (Homo sapiens, UniProt P10275); assay: Androgen Receptor Degradation-Imaging Assay, VCaP cell line; format: cell-based; conditions: 16 hours treatment, maximum observed degradation
T2 construct: endogenous in cells; host or cells: VCaP
T2 sequence (P10275 1-920): T1 sequence (P10275 1-920 L702H/T878A) with H702L, A878T
Experimental: as §1, §2

[4] = target: T3, Androgen Receptor, LNCaP (AR T878A) (Homo sapiens, UniProt P10275, T878A); assay: Androgen Receptor Degradation-Imaging Assay, LNCaP cell line; format: cell-based; conditions: 16 hours treatment, maximum observed degradation
T3 construct: endogenous in cells; host or cells: LNCaP
T3 sequence (P10275 1-920 T878A): T1 sequence (P10275 1-920 L702H/T878A) with H702L
Experimental: as §1, §2

[5] = 30 mg/kg in 1% methylcellulose (aq.), male Wistar Han rat, 30 mg/kg
[6] = 35 mg/kg in 100% PEG400, male Wistar Han rat, 35 mg/kg

SMILES: COc1cc(O[C@H]2C(C)(C)[C@H](NC(=O)c3ccc(N4CCC(CN5CCC(n6ncc7c(N8CCC(=O)NC8=O)nccc76)CC5)CC4)c(F)c3)C2(C)C)ccc1C#N [Crystalline API, N-((1r,3r)-3-(4-cyano-3-methoxyphenoxy)-2,2,4,4-tetramethylcyclobutyl)-4-(4-((4-(4-(2,4-dioxotetrahydropyrimidin-1(2H)-yl)-1H-pyrazolo[4,3-c]pyridin-1-yl)piperidin-1-yl)methyl)piperidin-1-yl)-3-fluorobenzamide]
- AUC0-t [1, 5]: 4380 ± 1450 ng·h/mL
- Cmax [1, 5]: 185 ± 76 ng/mL
- Dose Normalised AUC0-t [1, 5]: 148 ± 49 (ng · h/mL)/(mg/kg
- Tmax [1, 5]: 7.3 ± 1.2 h
- *Estimated Bioavailability ([1]; 30 mg/kg in 1% methylcellulose (aq.), rat): 16%
- AUC0-t [1, 6]: 10700 ± 3370 ng·h/mL
- Cmax [1, 6]: 420 ± 123 ng/mL
- Dose Normalised AUC0-t [1, 6]: 309 ± 98 (ng · h/mL)/(mg/kg
- Tmax [1, 6]: 9.3 ± 2.3 h
- *Estimated Bioavailability ([1]; 35 mg/kg in 100% PEG400, rat): 33%

SMILES: COc1cc(O[C@H]2C(C)(C)[C@H](NC(=O)c3ccc(N4CCC(CN5CCC(n6ccc7c(N8CCC(=O)NC8=O)nccc76)CC5)CC4)c(F)c3)C2(C)C)ccc1C#N [Example 17, N-((1r,3r)-3-(4-Cyano-3-methoxyphenoxy)-2,2,4,4-tetramethylcyclobutyl)-4-(4-((4-(4-(2,4-dioxotetrahydropyrimidin-1(2H)-yl)-1H-pyrrolo[3,2-c]pyridin-1-yl)piperidin-1-yl)methyl)piperidin-1-yl)-3-fluorobenzamide]
- Dmax [2]: ≥ 80%
- Dmax [3]: ≥ 80%
- Dmax [4]: ≥ 80%
